In US10793553B2, “TLR7/8 antagonists and uses thereof” (Merck Patent GmbH, priority 2017, dated 2020):
Blank lines part the entries; values can stand above or below the compound they belong to.

What was measured:
TLR7 = target: T1, TLR7 (Homo sapiens, UniProt Q9NYK1); assay: HEK TLR7 Cell Assay; type: cell-based; conditions: TLR7/NFKb HEK cells, R848 agonist 10 uM final, Steady-Glo readout
T1 construct: expressed in transfected cells; host or cells: HEK cells carrying TLR7 and an NFkB luciferase reporter
T1 sequence (Q9NYK1 27-1049): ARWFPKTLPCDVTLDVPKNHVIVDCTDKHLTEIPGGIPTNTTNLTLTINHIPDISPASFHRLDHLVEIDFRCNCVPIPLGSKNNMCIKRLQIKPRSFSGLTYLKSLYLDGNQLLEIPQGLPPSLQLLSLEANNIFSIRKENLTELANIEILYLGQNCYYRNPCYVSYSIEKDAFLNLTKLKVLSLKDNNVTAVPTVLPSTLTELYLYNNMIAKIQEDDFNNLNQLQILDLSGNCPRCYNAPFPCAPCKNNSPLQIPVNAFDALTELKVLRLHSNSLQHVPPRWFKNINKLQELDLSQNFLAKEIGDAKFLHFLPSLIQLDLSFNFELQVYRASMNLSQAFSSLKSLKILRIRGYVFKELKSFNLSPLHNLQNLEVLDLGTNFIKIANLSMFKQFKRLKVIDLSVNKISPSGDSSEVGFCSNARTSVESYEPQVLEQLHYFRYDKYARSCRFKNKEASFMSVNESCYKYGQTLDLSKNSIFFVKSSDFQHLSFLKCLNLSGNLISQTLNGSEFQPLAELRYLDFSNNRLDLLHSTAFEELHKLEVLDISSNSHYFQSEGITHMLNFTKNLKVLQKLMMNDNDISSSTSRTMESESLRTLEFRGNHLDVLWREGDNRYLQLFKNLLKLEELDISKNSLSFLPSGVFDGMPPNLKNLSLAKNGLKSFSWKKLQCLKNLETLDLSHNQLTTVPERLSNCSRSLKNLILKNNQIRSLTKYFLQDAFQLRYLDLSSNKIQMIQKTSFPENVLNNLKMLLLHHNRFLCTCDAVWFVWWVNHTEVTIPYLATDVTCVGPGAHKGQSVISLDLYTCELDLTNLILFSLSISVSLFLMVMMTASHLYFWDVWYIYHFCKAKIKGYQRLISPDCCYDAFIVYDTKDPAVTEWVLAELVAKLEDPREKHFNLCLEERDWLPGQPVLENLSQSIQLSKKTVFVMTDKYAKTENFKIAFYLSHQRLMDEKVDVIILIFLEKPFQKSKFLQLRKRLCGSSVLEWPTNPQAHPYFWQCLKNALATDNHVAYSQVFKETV
Procedure: Example 24: HEK TLR7 Cell Assay
(§1) Into 384 CulturePlates (Corning 3707) was placed 5000 c/w of TLR7/NFKb HEK cells in 30 uL DMEM without Phenol red (gibco #31053) and 10% FCS-HI, 2 mM L-Glutamine, 1% Pen/Strept. The cells are incubated for 24 h at 37 degrees Celsius, and 10% carbon dioxide. Dispense 3 uL of controls, standards, and compounds to wells, incubate for 30 min then add 3 uL of R848 (10 uM final concentration) agonist in 20 mM Hepes. Incubate for 5 hours and then allow to stand at room temperature for 15 min. Add 10 uL of Steady-Glo substrate reagent and shake assay plate for 5 min at 1500 rpm. Let the assay plate sit for 30 min at room temperature and then read plate on EnVision.

TLR8 = target: T2, TLR8 (Homo sapiens, UniProt Q9NR97); assay: HEK TLR8 Cell Assay; type: cell-based; conditions: TLR8/NFKb HEK cells, R848 agonist 30 uM final, Steady-Glo readout
T2 construct: expressed in transfected cells; host or cells: HEK cells carrying TLR8 and an NFkB luciferase reporter
T2 sequence (Q9NR97 27-1041): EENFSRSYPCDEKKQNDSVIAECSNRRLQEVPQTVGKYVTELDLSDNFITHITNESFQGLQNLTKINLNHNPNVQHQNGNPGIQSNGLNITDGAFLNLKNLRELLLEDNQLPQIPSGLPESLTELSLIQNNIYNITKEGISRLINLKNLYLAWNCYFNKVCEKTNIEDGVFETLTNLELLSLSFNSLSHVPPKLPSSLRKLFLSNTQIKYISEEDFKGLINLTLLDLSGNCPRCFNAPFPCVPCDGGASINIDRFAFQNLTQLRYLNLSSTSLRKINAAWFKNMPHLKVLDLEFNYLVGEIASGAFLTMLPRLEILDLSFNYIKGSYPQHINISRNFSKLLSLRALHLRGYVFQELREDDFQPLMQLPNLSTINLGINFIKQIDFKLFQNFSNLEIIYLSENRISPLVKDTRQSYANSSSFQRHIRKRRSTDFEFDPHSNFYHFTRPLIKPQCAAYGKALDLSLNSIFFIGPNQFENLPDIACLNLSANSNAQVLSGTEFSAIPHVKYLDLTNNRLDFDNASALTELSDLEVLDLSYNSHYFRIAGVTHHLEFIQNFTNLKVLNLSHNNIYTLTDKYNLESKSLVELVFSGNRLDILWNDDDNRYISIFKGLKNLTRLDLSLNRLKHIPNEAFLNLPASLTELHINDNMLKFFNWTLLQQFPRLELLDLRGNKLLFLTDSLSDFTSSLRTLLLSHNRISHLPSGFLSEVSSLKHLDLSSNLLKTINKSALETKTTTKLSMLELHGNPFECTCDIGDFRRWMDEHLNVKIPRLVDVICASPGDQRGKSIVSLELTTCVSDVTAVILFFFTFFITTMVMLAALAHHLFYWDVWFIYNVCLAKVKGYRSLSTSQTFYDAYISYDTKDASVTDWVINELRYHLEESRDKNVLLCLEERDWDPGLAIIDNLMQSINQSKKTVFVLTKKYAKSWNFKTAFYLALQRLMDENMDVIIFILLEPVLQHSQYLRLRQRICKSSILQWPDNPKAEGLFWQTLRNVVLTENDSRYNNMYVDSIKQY
Procedure: Example 25: HEK TLR8 Cell Assay
as §1, with “TLR8/NFKb” for “TLR7/NFKb”, “(30” for “(10”

Structure (SMILES): C[C@@H]1CN(c2ccc(C#N)c3nccnc23)C[C@@H]1NC(=O)CC1CCN(C)C1 (single isomer, unassigned) [Compound 6]
- IC50 (TLR7): < 1 µM
- IC50 (TLR8): < 1 µM

Structure (SMILES): C[C@@H]1CN(c2ccc(C#N)c3nccnc23)C[C@@H]1NC(=O)CC1CCCN(C)C1 (single isomer, unassigned) [Compound 4]
- IC50 (TLR7): < 1 µM
- IC50 (TLR8): < 1 µM

Structure (SMILES): Cc1ccc(N2C[C@@H](C)[C@@H](N)C2)c2cccnc12 [Compound 33, (3R,4R)-4-methyl-1-(8-methylquinolin-5-yl)pyrrolidin-3-amine]
- IC50 (TLR7): > 10 µM
- IC50 (TLR8): > 10 µM

Structure (SMILES): C[C@@H]1CN(c2ccc(C#N)c3nccnc23)C[C@@H]1NC(=O)CC1CCN(C)CC1(F)F (single isomer, unassigned) [Compound 11]
- IC50 (TLR7): < 1 µM
- IC50 (TLR8): < 1 µM

Structure (SMILES): Cc1ccc(N2C[C@@H](C)[C@@H](NC(=O)CC3(C)CCN(C)CC3)C2)c2cccnc12 [Compound 40, 2-(1,4-dimethylpiperidin-4-yl)-N-[(3R,4R)-4-methyl-1-(8-methylquinolin-5-yl)pyrrolidin-3-yl]acetamide]
- IC50 (TLR7): < 1 µM
- IC50 (TLR8): 1 to 10 µM

Structure (SMILES): CC(C)[C@H](O)C(=O)N[C@H]1CN(c2ccc(C#N)c3nccnc23)C[C@H]1C [Compound 15, (2S)—N-[(3R,4R)-1-(8-cyanoquinoxalin-5-yl)-4-methylpyrrolidin-3-yl]-2-hydroxy-3-methylbutanamide]
- IC50 (TLR7): 1 to 10 µM
- IC50 (TLR8): 1 to 10 µM

Structure (SMILES): CC(C)[C@@H](O)C(=O)N[C@H]1CN(c2ccc(C#N)c3nccnc23)C[C@H]1C [Compound 16, (2R)—N-[(3R,4R)-1-(8-cyanoquinoxalin-5-yl)-4-methylpyrrolidin-3-yl]-2-hydroxy-3-methylbutanamide]
- IC50 (TLR7): 1 to 10 µM
- IC50 (TLR8): 1 to 10 µM

Structure (SMILES): Cc1cc2c(N3CCC(CNCCN4CCCCC4)C3)ccnc2n1C (centres unmarked) [Compound 55, [1-(1,2-Dimethyl-1H-pyrrolo[2,3-b]pyridin-4-yl)-pyrrolidin-3-ylmethyl]-(2-piperidin-1-yl-ethyl)-amine]
- IC50 (TLR7): 1 to 10 µM
- IC50 (TLR8): > 10 µM

Structure (SMILES): Cc1ccc(N2C[C@@H](C)[C@@H](NC(=O)CC3CCN(C)CC3)C2)c2cccnc12 [Compound 34, N-[(3R,4R)-4-methyl-1-(8-methylquinolin-5-yl)pyrrolidin-3-yl]-2-(1-methylpiperidin-4-yl)acetamide]
- IC50 (TLR7): < 1 µM
- IC50 (TLR8): < 1 µM

Structure (SMILES): Cc1ccc(N2C[C@@H](C)[C@@H](NC(=O)C(O)C3CC3)C2)c2cccnc12 (single isomer, unassigned) [Compound 45]
- IC50 (TLR7): > 10 µM
- IC50 (TLR8): > 10 µM

Structure (SMILES): Cc1ccc(N2C[C@@H](C)[C@@H](NC(=O)CC3CCN(C)CC3(F)F)C2)c2cccnc12 (single isomer, unassigned) [Compound 44]
- IC50 (TLR7): 1 to 10 µM
- IC50 (TLR8): 1 to 10 µM

Structure (SMILES): CCN(CC)CCNC(=O)C1CCN(c2ccnc3nccnc23)C1 (centres unmarked) [Compound 54, 1-pyrido[2,3-b]pyrazin-8-yl-pyrrolidine-3-carboxylic acid (2-diethylamino-ethyl)-amide]
- IC50 (TLR7): > 10 µM
- IC50 (TLR8): > 10 µM

Structure (SMILES): Cc1ncc(N2C[C@@H](C)[C@@H](NC(=O)CC3CN(C)C3)C2)c2cccnc12 [Compound 53, 2-(1-methyl-azetidin-3-yl)-N-[(3R,4R)-4-methyl-1-(8-methyl-[1,7]naphthyridin-5-yl)-pyrrolidin-3-yl]-acetamide]
- IC50 (TLR7): 1 to 10 µM
- IC50 (TLR8): > 10 µM

Second part, the compound after the results:

- IC50 (TLR7): < 1 µM
- IC50 (TLR8): 1 to 10 µM
Structure (SMILES): C[C@@H]1CN(c2ccc(C(F)(F)F)c3ncccc23)C[C@@H]1NC(=O)CC1CCCN(C)C1 (single isomer, unassigned) [Compound 20]

- IC50 (TLR7): 1 to 10 µM
- IC50 (TLR8): 1 to 10 µM
Structure (SMILES): C[C@@H]1CN(c2ccc(C(F)(F)F)c3ncccc23)C[C@@H]1NC(=O)CC1CCN(C)CC1(F)F (single isomer, unassigned) [Compound 27]

- IC50 (TLR7): < 1 µM
- IC50 (TLR8): < 1 µM
Structure (SMILES): C[C@@H]1CN(c2ccc(C(F)(F)F)c3ncccc23)C[C@@H]1NC(=O)CC1CCN(C)CC1 [Compound 18, N-[(3R,4R)-4-methyl-1-[8-(trifluoromethyl)quinolin-5-yl]pyrrolidin-3-yl]-2-(1-methylpiperidin-4-yl)acetamide]

- IC50 (TLR7): < 1 µM
- IC50 (TLR8): < 1 µM
Structure (SMILES): C[C@@H]1CN(c2ccc(C(F)(F)F)c3ncccc23)C[C@@H]1NC(=O)CC1(F)CCN(C)CC1 [Compound 26, 2-(4-fluoro-1-methylpiperidin-4-yl)-N-[(3R,4R)-4-methyl-1-[8-(trifluoromethyl)quinolin-5-yl]pyrrolidin-3-yl]acetamide]

- IC50 (TLR7): > 10 µM
- IC50 (TLR8): > 10 µM
Structure (SMILES): CC(C)[C@@H](O)C(=O)N[C@H]1CN(c2ccc(C(F)(F)F)c3ncccc23)C[C@H]1C [Compound 32, (2R)-2-hydroxy-3-methyl-N-[(3R,4R)-4-methyl-1-[8-(trifluoromethyl)quinolin-5-yl]pyrrolidin-3-yl]butanamide]

- IC50 (TLR7): 1 to 10 µM
- IC50 (TLR8): 1 to 10 µM
Structure (SMILES): C[C@@H]1CN(c2ccc(C(F)(F)F)c3ncccc23)C[C@@H]1NC(=O)C(O)C1CC1 (single isomer, unassigned) [Compound 30]

- IC50 (TLR7): < 1 µM
- IC50 (TLR8): < 1 µM
Structure (SMILES): C[C@@H]1CN(c2ccc(C(F)(F)F)c3ncccc23)C[C@@H]1NC(=O)CC1CCN(C)C1 (single isomer, unassigned) [Compound 22]

- IC50 (TLR7): 1 to 10 µM
- IC50 (TLR8): > 10 µM
Structure (SMILES): C[C@@H]1CN(c2ccc(C(F)(F)F)c3ncccc23)C[C@@H]1N [Compound 17, (3R,4R)-4-methyl-1-[8-(trifluoromethyl)quinolin-5-yl]pyrrolidin-3-amine]

- IC50 (TLR7): 1 to 10 µM
- IC50 (TLR8): > 10 µM
Structure (SMILES): CC(C)[C@H](O)C(=O)N[C@H]1CN(c2ccc(C(F)(F)F)c3ncccc23)C[C@H]1C [Compound 31, (2S)-2-hydroxy-3-methyl-N-[(3R,4R)-4-methyl-1-[8-(trifluoromethyl)quinolin-5-yl]pyrrolidin-3-yl]butanamide]
